The text below walks through data of ChEMBL document CHEMBL1128265, “Three-dimensional quantitative structure-activity relationship (QSAR) of HIV integrase inhibitors: a comparative molecular field analysis (CoMFA) study” (J Med Chem, 1995).

One assay deals with T1, Human immunodeficiency virus type 1 integrase (Human immunodeficiency virus 1, UniProt Q7ZJM1).
T1 sequence (Q7ZJM1 whole entry): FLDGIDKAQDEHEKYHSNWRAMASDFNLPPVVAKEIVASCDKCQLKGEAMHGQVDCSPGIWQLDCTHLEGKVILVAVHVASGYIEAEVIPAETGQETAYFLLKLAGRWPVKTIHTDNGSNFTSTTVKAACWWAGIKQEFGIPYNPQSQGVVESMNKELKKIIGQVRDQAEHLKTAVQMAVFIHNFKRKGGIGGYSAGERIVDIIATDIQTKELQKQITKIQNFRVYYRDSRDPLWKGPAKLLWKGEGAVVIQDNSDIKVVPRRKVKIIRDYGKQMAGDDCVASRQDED
Turning to `O=c1c(O)c(-c2cc(O)c(O)c(O)c2)oc2cc(O)ccc12` [ROBINETIN], the half-inhibitory concentration (IC50) (commonly the concentration at which inhibition is half-maximal) is 1.6 µM.
On the same count and under the same terms, with `O=c1c(O)c(-c2ccc(O)c(O)c2)oc2cc(O)ccc12` [FISETIN] the figure was 8.5 µM; with `O=c1c(O)c(-c2ccc(O)cc2O)oc2cc(O)cc(O)c12` [MORIN], 31.7 µM; with `O=c1c(OC2COC(O)C(O)C2O)c(-c2ccc(O)c(O)c2)oc2cc(O)cc(O)c12` (centres undefined), 25.1 µM.
Turning to `COc1cc(O)c2c(=O)c(O)c(-c3ccc(O)c(O)c3)oc2c1` [RHAMNETIN], the IC50 was 28.7 µM.
`O=c1c(O)c(-c2ccc(O)c(O)c2)oc2c(O[C@@H]3O[C@@H](O)[C@@H](O)[C@H](O)[C@H]3O)c(O)cc(O)c12` returned an IC50 of 22.5 µM.
The compound `CC1OC(O)C(O)C(O)C1Oc1c(-c2ccc(O)c(O)c2)oc2cc(O)cc(O)c2c1=O` (centres undefined) returned an IC50 of 38.5 µM.
The same measure, in the same setting: next, `COc1c(O)cc2oc(-c3ccc(O)c(O)c3)cc(=O)c2c1O` [EUPAFOLIN]: 39.1 µM.
The same measure, in the same setting: with `O=c1c(O)c(-c2ccc(O)c(O)c2)oc2cc(O)c(O)c(O)c12` [QUERCETAGETIN] the figure was 0.1 µM; with `O=c1c(O)c(-c2ccc(O)cc2)oc2cc(O)cc(O)c12` [KAEMPFEROL], 64.7 µM; with `O=c1cc(-c2ccc(O)c(O)c2)oc2cc(O)cc(O)c12` [LUTEOLIN], 25 µM.
The same measure, in the same setting: with `C[C@@H]1O[C@@H](O)[C@H](O)[C@H](O)[C@H]1Oc1c(-c2cc(O)c(O)c(O)c2)oc2cc(O)cc(O)c2c1=O` the figure was 10.3 µM.

The next assay addresses T1, Human immunodeficiency virus type 1 integrase. This is another data set of the same source.
Take `O=c1c(O)c(-c2cc(O)c(O)c(O)c2)oc2cc(O)ccc12` [ROBINETIN]: the IC50 was 5.9 µM.
With `O=c1c(O)c(-c2ccc(O)c(O)c2)oc2cc(O)ccc12` [FISETIN], the IC50 was found to be 28.4 µM.
Still for that read-out and setting: next, `O=c1c(O)c(-c2ccc(O)cc2O)oc2cc(O)cc(O)c12` [MORIN]: 76.5 µM; `O=c1c(OC2COC(O)C(O)C2O)c(-c2ccc(O)c(O)c2)oc2cc(O)cc(O)c12` (centres undefined): 66.3 µM; `COc1cc(O)c2c(=O)c(O)c(-c3ccc(O)c(O)c3)oc2c1` [RHAMNETIN]: 61.6 µM.
Still for that read-out and setting: next, `O=c1c(O)c(-c2ccc(O)c(O)c2)oc2c(O[C@@H]3O[C@@H](O)[C@@H](O)[C@H](O)[C@H]3O)c(O)cc(O)c12`: 69.7 µM.
Still for that read-out and setting: next, `CC1OC(O)C(O)C(O)C1Oc1c(-c2ccc(O)c(O)c2)oc2cc(O)cc(O)c2c1=O` (centres undefined): 60 µM; `COc1c(O)cc2oc(-c3ccc(O)c(O)c3)cc(=O)c2c1O` [EUPAFOLIN]: 94.3 µM.
As for `O=c1c(O)c(-c2ccc(O)c(O)c2)oc2cc(O)c(O)c(O)c12` [QUERCETAGETIN], the midpoint of inhibition, the IC50, lay at 0.8 µM.
On the same count and under the same terms, next, `O=c1c(O)c(-c2ccc(O)cc2)oc2cc(O)cc(O)c12` [KAEMPFEROL]: 97.8 µM; `O=c1cc(-c2ccc(O)c(O)c2)oc2cc(O)cc(O)c12` [LUTEOLIN]: 32.9 µM.
Same read-out and setting: next, `C[C@@H]1O[C@@H](O)[C@H](O)[C@H](O)[C@H]1Oc1c(-c2cc(O)c(O)c(O)c2)oc2cc(O)cc(O)c2c1=O`: 39.6 µM.
